ChEMBL document CHEMBL1201862, “PubChem BioAssay data set” (2004)
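Exposure lasted 48 hours, with cells grown in 96-well plates and compounds tested at five concentrations. Abbreviation: GI50, concentration required for 50% inhibition of growth.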 The source made the active and inactive calls. Rule as the data show it: active = GI50 up to about 1.1 µM and inactive = higher.

How the values were obtained:
Test in all cases: growth of human tumour cells (NCI), 48 h
M14 = system: M14
EKVX = system: EKVX
A549 = system: A549
OVCAR-8 = system: OVCAR-8
SK-MEL-5 = system: SK-MEL-5
SF-268 = system: SF-268
ACHN = system: ACHN
UACC-257 = system: UACC-257
UACC-62 = system: UACC-62
SNB-19 = system: SNB-19
Hs-578T = system: Hs-578T
MOLT-4 = system: MOLT-4
DU-145 = system: DU-145
MDA-N = system: MDA-N
HT-29 = system: HT-29
SF-295 = system: SF-295
TK-10 = system: TK-10
LOX IMVI = system: LOX IMVI
HOP-62 = system: HOP-62
OVCAR-3 = system: OVCAR-3
IGROV-1 = system: IGROV-1
SK-MEL-28 = system: SK-MEL-28
HCT-116 = system: HCT-116
CAKI-1 = system: CAKI-1
HOP-92 = system: HOP-92
K562 = system: K562
CCRF-CEM = system: CCRF-CEM
NCI/ADR-RES = system: NCI/ADR-RES
HCC 2998 = system: HCC 2998
PC-3 = system: PC-3
HL-60 = system: HL-60
U-251 = system: U-251
OVCAR-4 = system: OVCAR-4
RXF 393 = system: RXF 393
SK-OV-3 = system: SK-OV-3
NCI-H23 = system: NCI-H23
NCI-H460 = system: NCI-H460
T47D = system: T47D
MCF7 = system: MCF7
BT-549 = system: BT-549
SF-539 = system: SF-539
SNB-75 = system: SNB-75
RPMI-8226 = system: RPMI-8226
NCI-H522 = system: NCI-H522
OVCAR-5 = system: OVCAR-5
SN12C = system: SN12C
HCT-15 = system: HCT-15
SW-620 = system: SW-620
MDA-MB-231 = system: MDA-MB-231
SK-MEL-2 = system: SK-MEL-2
NCI-H226 = system: NCI-H226
A498 = system: A498
786-0 = system: 786-0
COLO 205 = system: COLO 205
SR = system: SR
Malme-3M = system: Malme-3M
KM12 = system: KM12
MDA-MB-435 = system: MDA-MB-435
UO-31 = system: UO-31

For CC(C)CNC(=O)c1c(NC(=O)c2ccccc2)sc2[nH]c(=O)n(-c3ccccc3)c(=O)c12, the GI50 (M14) was 91.2 µM (inactive), the GI50 (EKVX) was 70.6 µM (inactive) and the GI50 (A549) was > 100 µM (inactive). The GI50 (OVCAR-8) was > 100 µM (inactive), the GI50 (SK-MEL-5) was > 93.1 µM (inactive) and the GI50 (SF-268) was 37.1 µM (inactive). The GI50 (ACHN) was 13.8 µM (inactive), the GI50 (UACC-257) was > 100 µM (inactive) and the GI50 (UACC-62) was 64.3 µM (inactive). The GI50 (SNB-19) was 24 µM (inactive), the GI50 (Hs-578T) was 14.3 µM (inactive) and the GI50 (MOLT-4) was 51.3 µM (inactive). For the same compound, the GI50 (DU-145) was > 100 µM (inactive), the GI50 (MDA-N) was > 100 µM (inactive) and the GI50 (HT-29) was > 100 µM (inactive). For the same compound, the GI50 (SF-295) was 19.6 µM (inactive), the GI50 (TK-10) was 37.9 µM (inactive) and the GI50 (LOX IMVI) was > 100 µM (inactive). The GI50 (HOP-62) was 15.3 µM (inactive), the GI50 (OVCAR-3) was > 100 µM (inactive) and the GI50 (IGROV-1) was 74.3 µM (inactive). The GI50 (SK-MEL-28) was > 100 µM (inactive), the GI50 (HCT-116) was > 86.3 µM (inactive) and the GI50 (CAKI-1) was > 42.1 µM (inactive). For the same compound, the GI50 (HOP-92) was 5.09 µM (inactive), the GI50 (K562) was 31 µM (inactive) and the GI50 (CCRF-CEM) was 40.5 µM (inactive). The GI50 (NCI/ADR-RES) was > 97.5 µM (inactive), the GI50 (HCC 2998) was > 100 µM (inactive) and the GI50 (PC-3) was > 100 µM (inactive). The GI50 (HL-60) was 68.9 µM (inactive), the GI50 (U-251) was 31.3 µM (inactive) and the GI50 (OVCAR-4) was > 64 µM (inactive). For the same compound, the GI50 (RXF 393) was 16.6 µM (inactive), the GI50 (SK-OV-3) was 23.8 µM (inactive) and the GI50 (NCI-H23) was 80.5 µM (inactive). The GI50 (NCI-H460) was > 100 µM (inactive), the GI50 (T47D) was 89.3 µM (inactive) and the GI50 (MCF7) was > 100 µM (inactive). The GI50 (BT-549) was 26.4 µM (inactive), the GI50 (SF-539) was 46 µM (inactive) and the GI50 (SNB-75) was 17.8 µM (inactive). The GI50 (RPMI-8226) was > 100 µM (inactive), the GI50 (NCI-H522) was 43.7 µM (inactive) and the GI50 (OVCAR-5) was > 100 µM (inactive). For the same compound, the GI50 (SN12C) was > 100 µM (inactive), the GI50 (HCT-15) was > 100 µM and the GI50 (SW-620) was > 100 µM (inactive). The GI50 (MDA-MB-231) was 23.2 µM (inactive), the GI50 (SK-MEL-2) was 27.5 µM (inactive) and the GI50 (NCI-H226) was > 82.6 µM (inactive). The GI50 (A498) was 27.5 µM (inactive), the GI50 (786-0) was 16.8 µM (inactive) and the GI50 (COLO 205) was > 100 µM (inactive). The GI50 (SR) was 49.4 µM (inactive), the GI50 (Malme-3M) was > 82.8 µM (inactive) and the GI50 (KM12) was > 100 µM (inactive). The GI50 (MDA-MB-435) was > 100 µM (inactive) and the GI50 (UO-31) was > 71.4 µM (inactive).
